Reference: patent publication US20050266014A1, “Tumor antigen based on products of the tumor suppressor gene WT1” (HARUO SUGIYAMA, priority 1998, published 2005)
Where two headings read alike, the source gives them in different places. No end group written: not given here.

What was measured:
D^b of MHC class I = target: T1, D^b of MHC class I (Mus musculus, UniProt P01899); experiment: Binding of peptides to D^b on RMA-S cells (fluorescent antibody staining, binding dissociation constant)
T1 construct: the cell line (RMA-S) that expresses K^b and D^b molecules; endogenous in cells; host or cells: RMA-S cells
T1 sequence (P01899 25-362): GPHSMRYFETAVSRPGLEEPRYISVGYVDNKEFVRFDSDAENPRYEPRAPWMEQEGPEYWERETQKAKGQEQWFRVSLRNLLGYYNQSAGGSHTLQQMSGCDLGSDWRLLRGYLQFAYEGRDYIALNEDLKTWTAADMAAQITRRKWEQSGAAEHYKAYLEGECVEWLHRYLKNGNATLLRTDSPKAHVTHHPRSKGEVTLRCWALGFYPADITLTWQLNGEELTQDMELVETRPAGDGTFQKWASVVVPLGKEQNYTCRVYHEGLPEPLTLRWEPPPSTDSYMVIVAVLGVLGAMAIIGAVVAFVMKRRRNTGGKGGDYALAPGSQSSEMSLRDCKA
T1 sequence (P01887 21-119 partner): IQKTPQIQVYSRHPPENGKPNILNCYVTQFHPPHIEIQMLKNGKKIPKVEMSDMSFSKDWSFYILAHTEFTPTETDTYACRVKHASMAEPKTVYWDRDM
Procedure: (§1) Thus, RMA-S was cultured at 26° C. to effect high expression of MHC class I, and the cultured cells were incubated with the solutions of the test peptides at 37° C. for 1 hour. […] Then using fluorescently labeled monoclonal antibody that recognizes MHC class I (K^b, D^b), RMA-S cells were stained.

K^b of MHC class I = target: T2, K^b of MHC class I (Mus musculus, UniProt P01901); experiment: Binding of peptides to K^b on RMA-S cells (fluorescent antibody staining, binding dissociation constant); details: peptide 37° C. 1 hour
T2 construct: the cell line (RMA-S) that expresses K^b and D^b molecules; endogenous in cells; host or cells: RMA-S cells
T2 sequence (P01901 22-369): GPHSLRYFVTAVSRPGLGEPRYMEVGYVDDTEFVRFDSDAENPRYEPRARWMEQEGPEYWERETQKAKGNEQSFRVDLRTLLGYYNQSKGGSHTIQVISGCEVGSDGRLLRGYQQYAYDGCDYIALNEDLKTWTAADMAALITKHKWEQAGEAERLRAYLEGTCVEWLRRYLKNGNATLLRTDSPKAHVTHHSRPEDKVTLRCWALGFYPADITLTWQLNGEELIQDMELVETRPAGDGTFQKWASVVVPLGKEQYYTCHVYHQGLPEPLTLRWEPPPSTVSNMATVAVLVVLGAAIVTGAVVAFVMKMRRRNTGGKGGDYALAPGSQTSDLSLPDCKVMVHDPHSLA
T2 sequence (P01887 21-119 partner): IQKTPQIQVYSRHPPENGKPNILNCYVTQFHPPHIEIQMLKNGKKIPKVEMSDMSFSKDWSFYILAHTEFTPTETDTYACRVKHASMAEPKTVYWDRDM
Procedure: as §1, with “stained. Finally, the binding dissociation constant was calculated from the average amount of fluorescence per cell (Immunol. Lett., 47: 1, 1995).” for “stained.”

HLA-A* 0201 = target: T3, HLA-A* 0201 (Homo sapiens, UniProt P04439, D140Y/D185E/D98H/E176V/E277Q/G131W/G231S/I119V/I121R/I166T/I218V/L300P/L318F/N151K/N90K/P208A/P217A/Q86G/Q94H/R138H/R169H/T345S); experiment: Binding of peptides to HLA-A* 0201 on T2 cells (FACS, binding dissociation constant); details: 37° C. 1 hour
T3 construct: T2 cells having the empty HLA-A* 0201 molecules; endogenous in cells; host or cells: T2 cells

induced CTL = experiment: FACS analysis of surface markers of induced CTL, Example 3; type: cell-based; details: human CTL, FIGS. 5 to 10
Procedure: One week later, T2 cells that were irradiated after incubating for 1 hour with the peptide (20 μg/ml) were added to the above culture system for restimulation. From the following day, human IL-2 (final concentration 100 JRU/ml) was added to the culture.
Subsequently, after repeating, for five times, stimulation with the T2 cells that were irradiated after being pulsed with the peptide, a killing assay was performed using, as the target, the T2 cells pulsed with the peptide or the T2 cells not pulsed with the peptide. The surface markers of the induced CTL were subjected to FACS analysis.

HLA-A* 0201, on T2 cells = target: T4, HLA-A* 0201, on T2 cells (human); experiment: peptide binding to empty HLA-A*0201 on T2 cells, staining with fluorescent anti-HLA-A2.1 antibody, FACS
T4 construct: whole, on cells; Empty HLA-A*0201 molecules on T2 cells; also called HLA-A2.1; A* 0201 of human HLA
Procedure: The above peptides and T2 cells having the empty HLA-A* 0201 molecules (J. Immunol., 150: 1763, 1993; Blood, 88: 2450, 1996) were incubated at 37° C. for 1 hour, and then the T2 cells were stained with fluorescently labeled monoclonal antibody that recognizes HLA-A2.1 to calculate the binding dissociation constant based on the average amount of fluorescence per cell in the FACS analysis.

[1] = target: T5, D^b of mouse MHC class I, on RMA-S cells (mouse, UniProt P01887 21-119; P01899 25-362); experiment: MHC stabilisation on RMA-S cells, staining with fluorescent anti-MHC class I antibody, flow cytometry
T5 construct: whole, on cells; Empty MHC class I on RMA-S cells cultured at 26 C; also called H-2D^b
T5 sequence (MHC heavy, looked up): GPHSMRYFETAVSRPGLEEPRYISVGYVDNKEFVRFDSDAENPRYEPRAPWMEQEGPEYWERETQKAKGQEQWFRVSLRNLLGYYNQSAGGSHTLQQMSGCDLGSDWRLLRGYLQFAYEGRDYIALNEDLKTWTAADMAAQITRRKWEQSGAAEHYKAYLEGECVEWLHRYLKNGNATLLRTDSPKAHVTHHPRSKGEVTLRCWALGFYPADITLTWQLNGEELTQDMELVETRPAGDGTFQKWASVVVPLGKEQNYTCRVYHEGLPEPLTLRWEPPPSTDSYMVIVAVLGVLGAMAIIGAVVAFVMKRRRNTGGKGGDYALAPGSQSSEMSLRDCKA
T5 sequence (b2m, looked up): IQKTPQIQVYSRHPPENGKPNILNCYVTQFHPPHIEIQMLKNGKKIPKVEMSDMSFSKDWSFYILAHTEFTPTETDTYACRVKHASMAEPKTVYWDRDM
Procedure: as §1, with “stained. Finally, the binding dissociation constant was calculated from the average amount of fluorescence per cell (Immunol. Lett., 47: 1, 1995).” for “stained.”

[2] = target: T6, K^b of mouse MHC class I, on RMA-S cells (mouse, UniProt P01887 21-119; P01901 22-369); experiment: as above
T6 construct: whole, on cells; Empty MHC class I on RMA-S cells cultured at 26 C; also called H-2K^b
T6 sequence (MHC heavy, looked up): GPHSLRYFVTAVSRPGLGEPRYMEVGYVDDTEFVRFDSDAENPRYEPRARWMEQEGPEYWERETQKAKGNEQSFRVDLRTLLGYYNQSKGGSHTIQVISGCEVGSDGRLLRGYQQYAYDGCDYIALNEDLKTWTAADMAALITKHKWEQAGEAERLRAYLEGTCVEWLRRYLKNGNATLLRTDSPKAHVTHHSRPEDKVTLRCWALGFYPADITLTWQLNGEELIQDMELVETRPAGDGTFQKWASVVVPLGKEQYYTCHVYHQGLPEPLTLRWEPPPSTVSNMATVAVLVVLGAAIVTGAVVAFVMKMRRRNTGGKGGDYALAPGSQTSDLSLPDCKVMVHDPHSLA
T6 sequence (b2m, looked up): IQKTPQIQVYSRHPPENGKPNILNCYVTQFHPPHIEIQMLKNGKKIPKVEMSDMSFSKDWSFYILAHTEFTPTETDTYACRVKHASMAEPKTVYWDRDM
Procedure: as §1, with “stained. Finally, the binding dissociation constant was calculated from the average amount of fluorescence per cell (Immunol. Lett., 47: 1, 1995).” for “stained.”

[3] = RMA-S cells, peptide 37° C. 1 hour, read-out: binding dissociation constant (Kd value) with D^b (converted)

## CSCC[C@H](NC(=O)[C@@H](N)CCCNC(=N)N)C(=O)N[C@@H](Cc1ccccc1)C(=O)N1CCC[C@H]1C(=O)N[C@@H](CC(N)=O)C(=O)N[C@@H](C)C(=O)N1CCC[C@H]1C(=O)N[C@@H](Cc1ccc(O)cc1)C(=O)N[C@@H](CC(C)C)C(=O)O [D^b 126]
D^b of MHC class I
  Kd: 521 nM

## CMTWNQMNL [D^b 235]
D^b of MHC class I; [3]
  Kd: 715 nM

## CNKRYFKL [K^b 330]
K^b of MHC class I
  Kd: 1730 nM

## GASAYGSL [K^b 45]
K^b of MHC class I
  Kd: 26400 nM

## SLGEQQYSV [WH 187]
HLA-A* 0201
  Kd: 7610 nM
Induced CTL
  surface markers of induced CTL (CD4, CD8): The CD4-positive cells and the CD8-positive cells were almost equal in the number

## YSSDNLYQM [D^b 221]
D^b of MHC class I; [3]
  Kd: 1760 nM

B1: WH 187 peptide (peptide)
peptide: SLGEQQYSV
HLA-A* 0201, on T2 cells
  Kd: 7610 nM

B2: D^b 221 peptide (peptide)
peptide: YSSDNLYQM
[1]
  log of binding dissociation constant (Kd): -5.75 log

B3: K^b 45 peptide (peptide)
peptide: GASAYGSL
[2]
  log of binding dissociation constant (Kd): -4.58 log

B4: K^b 330 peptide (peptide)
peptide: CNKRYFKL
[2]
  log of binding dissociation constant (Kd): -5.76 log

B5: D^b 235 peptide (peptide)
peptide: CMTWNQMNL
[1]
  log of binding dissociation constant (Kd): -6.15 log

B6: D^b 126 peptide (peptide)
peptide: RMFPNAPYL
notes: It was tested on both H-2D^b and HLA-A*0201
[1]
  log of binding dissociation constant (Kd): -6.28 log
